Tests used:
Type in all cases: in vivo, human
C-reactive protein (CRP) = experiment: Serum C-reactive protein ELISA; conditions: Mean ± SEM
Description: (§1) Prior to the study, participants were randomly assigned to receive either 3 g per day of HMB Free Acid (HMB) (combined with food-grade orange flavors and sweeteners), 400 mg per day of ATP (PEAK ATP®; TSI, Inc.), a combination of both 3 g of HMB and 400 mg per day of ATP, or a placebo (food-grade orange flavors and sweeteners) divided equally into three servings daily with the first serving given 30 minutes prior to exercise and the remaining two servings daily with the mid-day and evening meals. On the non-training days participants were instructed to consume one serving with each of three separate meals. The supplementation was continued daily throughout the training and testing protocols. Each serving was formulated with 1 gram of HMB free acid to account for fill and emptying variation and achieve a minimum effective dosage of 0.800 grams. This dosage would be equivalent to a 1 gram Ca-HMB dosage.
(§2) All blood draws throughout the study were obtained via venipuncture after a 12-hour fast by a trained phlebotomist. Whole blood was collected and transferred into appropriate tubes for obtaining serum and plasma and centrifuged at 1,500 g for 15 min at 4° C. Resulting serum and plasma were then aliquoted and stored at −80° C. until subsequent analyses.
(§3) Samples were thawed one time and analyzed in duplicate for each analyte. All blood draws were scheduled at the same time of day to negate confounding influences of diurnal hormonal variations. Serum total and free testosterone, cortisol, and C-reactive protein (CRP) were assayed via ELISA kits obtained from Diagnostic Systems Laboratories (Webster, Tex.). All hormones were measured in the same assay on the same day to avoid compounded interassay variance. […] Serum creatine kinase (CK) was measured using colorimetric procedures at 340 nm (Diagnostics Chemicals, Oxford, Conn.). Twenty-four hour urine collections were made and 3-methylhistine was determined by previously described methods (Rathmacher et al 1992 and Wilson et al, 2013).

total testosterone = experiment: Serum total testosterone ELISA; conditions: for effect on total testosterone: main effect; for Total Testosterone: Mean ± SEM
Description: as §1, §2, §3

resistance-trained males [1] = experiment: Vertical jump peak power on force platform; conditions: for vertical jump power increase: over the 12-weeks of training; for decrease in vertical jump power during the overreaching cycle: over weeks 9 and 10
Description: Measurements of PP were also taken during a vertical jump (VJ) test performed on a multi-component AMTI force platform (Advanced Mechanical Technology, Inc., Watertown, Mass.), interfaced with a personal computer at a sampling rate of 1000 Hz (51). Data acquisition software (LabVIEW, version 7.1; National Instruments Corporation, Austin, Tex.) was used to calculate PP. Peak power was calculated as the peak combination of ground reaction force and peak velocity during the accelerated launch on the platform. The ICC of VJ power was 0.97. Prior to the study, participants were randomly assigned to receive either 3 g per day of HMB Free Acid (HMB) (combined with food-grade orange flavors and sweeteners), 400 mg per day of ATP (PEAK ATP®; TSI, Inc.), a combination of both 3 g of HMB and 400 mg per day of ATP, or a placebo (food-grade orange flavors and sweeteners) divided equally into three servings daily with the first serving given 30 minutes prior to exercise and the remaining two servings daily with the mid-day and evening meals. On the non-training days participants were instructed to consume one serving with each of three separate meals. The supplementation was continued daily throughout the training and testing protocols. […] This dosage would be equivalent to a 1 gram Ca-HMB dosage. All participants performed a high volume resistance training protocol during the 12-week study. The phases of the study and measurements taken are shown in FIG. 1, and the exercise protocols for each phase of the study are shown in Tables 1 to 3. The training was divided into 3 phases, with Phase 1 consisting of daily undulating periodization (weeks 1 to 8), Phase 2 consisting of the overreaching cycle (weeks 9 and 10), and Phase 3 consisting of the taper cycle (weeks 11 and 12).

creatine kinase (CK) = experiment: Serum creatine kinase (muscle damage), colorimetric; conditions: for effect on training-induced increase in CK: compared with placebo, initiation of training and overreaching cycle; for CK: Mean ± SEM
Description: as §1, §2, §3

cortisol = experiment: Serum cortisol ELISA; conditions: for effect on cortisol levels: during the study, vs placebo; for Cortisol: Mean ± SEM
Description: as §1, §2, §3

resistance-trained males [2] = experiment: Muscle strength: 1RM of back squat, bench press and deadlift (total strength); conditions: for change in total strength during the overreaching cycle: from week 8 to week 10; for total strength gains: over the 12-week study, 1-RM of squat, bench press, deadlift
Description: After familiarization with procedures, muscle strength was assessed via 1RM testing of the back squat, bench press, and […]. Each lift was performed as described by the International Powerlifting Federation rules (44). Body composition (lean body mass, fat mass, and total mass) was determined by dual x-ray absorptiometry (DXA; Lunar Prodigy enCORE 2008, Madison, Wis., U.S.A.). Skeletal muscle hypertrophy was determined via the combined changes in ultrasonography-determined muscle thickness of the vastus lateralis (VL) and vastus intermedius (VI) muscles. The intraclass correlation coefficient (ICC) for the test-retest of muscle thickness measurements was r=0.97. Prior to the study, participants were randomly assigned to receive either 3 g per day of HMB Free Acid (HMB) (combined with food-grade orange flavors and sweeteners), 400 mg per day of ATP (PEAK ATP®; TSI, Inc.), a combination of both 3 g of HMB and 400 mg per day of ATP, or a placebo (food-grade orange flavors and sweeteners) divided equally into three servings daily with the first serving given 30 minutes prior to exercise and the remaining two servings daily with the mid-day and evening meals. On the non-training days participants were instructed to consume one serving with each of three separate meals. The supplementation was continued daily throughout the training and testing protocols. […] This dosage would be equivalent to a 1 gram Ca-HMB dosage. All participants performed a high volume resistance training protocol during the 12-week study. The phases of the study and measurements taken are shown in FIG. 1, and the exercise protocols for each phase of the study are shown in Tables 1 to 3. The training was divided into 3 phases, with Phase 1 consisting of daily undulating periodization (weeks 1 to 8), Phase 2 consisting of the overreaching cycle (weeks 9 and 10), and Phase 3 consisting of the taper cycle (weeks 11 and 12).

| Structure (SMILES) | CRP (C-reactive protein (CRP); week 0 (baseline)) [mg/L] | CRP (C-reactive protein (CRP); week 1) [mg/L] | CRP (C-reactive protein (CRP); week 4) [mg/L] | CRP (C-reactive protein (CRP); week 8) [mg/L] | CRP (C-reactive protein (CRP); week 9 (overreaching)) [mg/L] | CRP (C-reactive protein (CRP); week 10 (overreaching)) [mg/L] | CRP (C-reactive protein (CRP); week 12) [mg/L] | effect on total testosterone (total testosterone) | Total Testosterone (total testosterone; week 0 (baseline)) [ng/dL] | Total Testosterone (total testosterone; week 1) [ng/dL] | Total Testosterone (total testosterone; week 4) [ng/dL] | Total Testosterone (total testosterone; week 8) [ng/dL] | Total Testosterone (total testosterone; week 9 (overreaching)) [ng/dL] | Total Testosterone (total testosterone; week 10 (overreaching)) [ng/dL] | Total Testosterone (total testosterone; week 12) [ng/dL] | vertical jump power increase (resistance-trained males [1]) [watts] | decrease in vertical jump power during the overreaching cycle (resistance-trained males [1]) [%] | effect on training-induced increase in CK (creatine kinase (CK)) | CK (creatine kinase (CK); week 0 (baseline)) [IU/L] | CK (creatine kinase (CK); week 1) [IU/L] | other results |
| --- | --- | --- | --- | --- | --- | --- | --- | --- | --- | --- | --- | --- | --- | --- | --- | --- | --- | --- | --- | --- | --- |
| Nc1ncnc2c1ncn2[C@@H]1O[C@H](COP(=O)(O)OP(=O)(O)OP(=O)(O)O)[C@@H](O)[C@H]1O [ATP, Adenosine-5′-triphosphate] | 1.4 ± 0.4 | 1.1 ± 0.1 | 1.2 ± 0.2 | 1.9 ± 0.6 | 1.7 ± 0.6 | 1.1 ± 0.1 | 1.2 ± 0.2 | no main effect differences | 660 ± 67 | 645 ± 54 | 695 ± 60 | 645 ± 60 | 621 ± 49 | 592 ± 84 | 673 ± 69 | 796±75 | 2.2±0.4 | did not attenuate the increases in CK | 145 ± 8 | 500 ± 71 | CK (creatine kinase (CK); week 4): 324 ± 14 IU/L; CK (creatine kinase (CK); week 8): 234 ± 32 IU/L; CK (creatine kinase (CK); week 9 (overreaching)): 426 ± 44 IU/L; CK (creatine kinase (CK); week 10 (overreaching)): 449 ± 62 IU/L; CK (creatine kinase (CK); week 12): 160 ± 20 IU/L; effect on cortisol levels (cortisol): did not affect cortisol levels; Cortisol (cortisol; week 0 (baseline)): 20.9 ± 1.2 µg/dL; Cortisol (cortisol; week 1): 20.5 ± 1.3 µg/dL; Cortisol (cortisol; week 4): 18.4 ± 1.4 µg/dL; Cortisol (cortisol; week 8): 19.0 ± 0.4 µg/dL; Cortisol (cortisol; week 9 (overreaching)): 21.5 ± 0.4 µg/dL; Cortisol (cortisol; week 10 (overreaching)): 22.6 ± 0.2 µg/dL; Cortisol (cortisol; week 12): 19.7 ± 0.6 µg/dL; change in total strength during the overreaching cycle (resistance-trained males [2]): −2.±0.5%; total strength gains (resistance-trained males [2]): 55.3 ± 6.0 kg |
| CC(C)(O)CC(=O)O [HMB-FA, β-hydroxy-β-methylbutyric acid] | 1.0 ± 0.1 | 1.3 ± 0.3 | 1.0 ± 0.1 | 0.9 ± 0.01 | 1.0 ± 0.1 | 1.8 ± 0.8 | 1.1 ± 0.1 | no main effect differences | 708 ± 35 | 708 ± 48 | 730 ± 63 | 652 ± 35 | 752 ± 61 | 701 ± 34 | 728 ± 39 | 991±51 | 1.4±0.4 | significantly attenuated the increase in CK | 158 ± 16 | 322 ± 35 | CK (creatine kinase (CK); week 4): 280 ± 22 IU/L; CK (creatine kinase (CK); week 8): 255 ± 28 IU/L; CK (creatine kinase (CK); week 9 (overreaching)): 288 ± 18 IU/L; CK (creatine kinase (CK); week 10 (overreaching)): 250 ± 14 IU/L; CK (creatine kinase (CK); week 12): 147 ± 15 IU/L; effect on cortisol levels (cortisol): decreased cortisol levels; Cortisol (cortisol; week 0 (baseline)): 21.5 ± 1.4 µg/dL; Cortisol (cortisol; week 1): 20.3 ± 1.2 µg/dL; Cortisol (cortisol; week 4): 20.9 ± 1.0 µg/dL; Cortisol (cortisol; week 8): 18.8 ± 1.5 µg/dL; Cortisol (cortisol; week 9 (overreaching)): 19.6 ± 1.1 µg/dL; Cortisol (cortisol; week 10 (overreaching)): 18.6 ± 1.2 µg/dL; Cortisol (cortisol; week 12): 17.4 ± 1.2 µg/dL; change in total strength during the overreaching cycle (resistance-trained males [2]): −0.5±1.2%; total strength gains (resistance-trained males [2]): 77.1 ± 5.6 kg |

From patent US10888576B2, “Composition of HMB and ATP and methods of use” (Metabolic Technologies, Inc., priority 2018, dated 2021)
